# Measured values published in patent US9890166B2, “Imidazopyrrolidine derivatives and their use in the treatment of disease” (NOVARTIS AG, priority 2013, dated 2018).
# Experiments:
# [1] = biological target: BRD4 (His-Brd4(44-477)) (Homo sapiens (Human), UniProt O60885); assay: TR-FRET in-vitro binding assay for BRD4; details: single determination or n ≧ 2 independent determinations, read-out: Biochemical IC50 BRD4
# Procedure, shortened: (§1)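 In this TR-FRET format, each compound was tested as an 8-point dilution series, single point per concentration, dispensed from 90% DMSO solution. Incubation lasted 35 minutes at 30° C.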
# [2] = biological target: BRD2 (His-Brd2(60-472)) (Homo sapiens (Human), UniProt P25440); assay: TR-FRET in-vitro binding assay for BRD2; details: single determination or n ≧ 2 independent determinations, read-out: Biochemical IC50 BRD2
# Procedure, shortened: as §1
# [3] = biological target: BRD3 (His-Brd3(20-477)) (Homo sapiens (Human), UniProt Q15059); assay: TR-FRET in-vitro binding assay for BRD3; details: single determination or n ≧ 2 independent determinations, read-out: Biochemical IC50 BRD3
# Procedure, shortened: as §1
# [4] = biological target: CREBBP bromodomain (His-CREBBP(1081-1197)) (Homo sapiens (Human), UniProt Q92793); assay: AlphaScreen in-vitro binding assay for CREBBP; details: single determination or n ≧ 2 independent determinations, read-out: Biochemical IC50 CREBBP
# Procedure, shortened: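 Detection used nickel-chelate acceptor plus streptavidin donor AlphaScreen beads, 1 h room temperature. Percent inhibition fitted by non-linear regression to IC50.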
# [5] = test system: THP-1 cells; assay: Cell growth inhibition assay (CellTiter-Glo), THP-1; details: for GI50: Homo sapiens, THP-1, read-out: THP-1 GI50; for THP-1 TGI: THP-1 cells, total growth inhibition, CellTiter-Glo;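 as to all read-outs here: viability read as cellular ATP luminescence after 4 days, 3-fold dilution series from 10 µM, DMSO vehicle-treated cells taken as 100%, cell-free medium wells as −100%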
# [6] = test system: K-562 cells; assay: Cell growth inhibition assay (CellTiter-Glo), K-562; details: for GI50: Homo sapiens, K562, read-out: K-562 GI50; for K-562 TGI: K-562 cells, total growth inhibition, CellTiter-Glo;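 as to all read-outs here: cellular ATP measured by luminescence after 4 days of exposure, 3-fold dilution series from 10 µM, DMSO vehicle-treated cells define 100%, cell-free medium wells −100%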
# [7] = test system: MV-4-11 cells; assay: Cell growth inhibition assay (CellTiter-Glo), MV-4-11; details: for GI50: Homo sapiens, MV4-11, read-out: MV-4-11 GI50; for MV-4-11 TGI: MV-4-11 cells, total growth inhibition, CellTiter-Glo;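 as to all read-outs here: cellular ATP luminescence after 4 days, 3-fold dilution series from 10 µM top dose, vehicle (0.1% DMSO) set to 100%, cell-free medium set to −100%, day 0 corrected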
# BRD2 (His-Brd2(60-472)), sequence (P25440 60-472): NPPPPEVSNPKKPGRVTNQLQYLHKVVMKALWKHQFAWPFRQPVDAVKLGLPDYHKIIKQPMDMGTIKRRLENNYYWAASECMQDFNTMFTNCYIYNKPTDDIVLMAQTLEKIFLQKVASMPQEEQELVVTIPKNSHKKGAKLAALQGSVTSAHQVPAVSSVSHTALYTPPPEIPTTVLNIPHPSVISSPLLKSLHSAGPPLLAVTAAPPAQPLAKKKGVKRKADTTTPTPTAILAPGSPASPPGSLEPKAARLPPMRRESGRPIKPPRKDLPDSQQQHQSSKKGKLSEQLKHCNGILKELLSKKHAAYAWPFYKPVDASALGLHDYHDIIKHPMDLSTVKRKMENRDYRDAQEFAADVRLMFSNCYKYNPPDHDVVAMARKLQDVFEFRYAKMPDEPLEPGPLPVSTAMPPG
# CREBBP bromodomain (His-CREBBP(1081-1197)), sequence (Q92793 1081-1197): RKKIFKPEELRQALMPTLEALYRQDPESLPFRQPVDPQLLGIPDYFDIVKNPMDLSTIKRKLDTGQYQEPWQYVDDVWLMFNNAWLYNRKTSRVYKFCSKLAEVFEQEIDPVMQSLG
# BRD3 (His-Brd3(20-477)), sequence (Q15059 20-477): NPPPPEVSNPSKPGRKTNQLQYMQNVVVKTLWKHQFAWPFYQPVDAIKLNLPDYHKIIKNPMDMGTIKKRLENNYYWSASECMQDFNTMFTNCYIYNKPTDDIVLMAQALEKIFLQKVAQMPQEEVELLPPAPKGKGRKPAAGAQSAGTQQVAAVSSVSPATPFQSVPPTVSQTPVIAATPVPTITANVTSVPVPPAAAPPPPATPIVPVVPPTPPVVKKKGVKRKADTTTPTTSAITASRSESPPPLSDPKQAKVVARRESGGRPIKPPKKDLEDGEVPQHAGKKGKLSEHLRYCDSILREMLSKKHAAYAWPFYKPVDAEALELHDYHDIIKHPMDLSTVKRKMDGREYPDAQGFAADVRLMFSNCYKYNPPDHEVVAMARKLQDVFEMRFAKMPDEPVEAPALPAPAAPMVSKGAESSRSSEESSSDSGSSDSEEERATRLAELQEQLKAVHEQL
SMILES,IC50 [1],IC50 [2],IC50 [3],IC50 [4],GI50 [5],THP-1 TGI [5],GI50 [6],K-562 TGI [6],GI50 [7],MV-4-11 TGI [7]
"Cc1cc(N2C(=O)c3nc(C4=CCN(C(=O)NC(C)(C)C)CC4)n(C(C)C)c3C2c2ccc(Cl)cc2)cn2c(C)nnc12 (stereo not drawn) [Example 72, N-(tert-butyl)-4-(6-(4-chlorophenyl)-5-(3,8-dimethyl-[1,2,4]triazolo[4,3-a]pyridin-6-yl)-1-isopropyl-4-oxo-1,4,5,6-tetrahydropyrrolo[3,4-d]imidazol-2-yl)-5,6-dihydropyridine-1(2H)-carboxamide]",12 nM,23 nM,< 11 nM,5100 nM,222 nM,746 nM,1340 nM,>10000 nM,45.8 nM,96.9 nM
COc1cc(N2C(=O)c3nc(C4CCOCC4)n(C(C)C)c3[C@H]2c2ccc(Cl)cc2)cc2c1nnn2C [Example 108],61 nM,180 nM,74 nM,9750 nM,47.4 nM,113 nM,132 nM,>10000 nM,20.7 nM,42.95 nM
"Cc1cc(N2C(=O)c3nc(C4=CCN(C)CC4)n(C(C)C)c3C2c2ccc(Cl)cc2)cc2c1nnn2C (stereo not drawn) [Example 78, 6-(4-chlorophenyl)-5-(1,4-dimethyl-1H-benzo[d][1,2,3]triazol-6-yl)-1-isopropyl-2-(1-methyl-1,2,3,6-tetrahydropyridin-4-yl)-5,6-dihydropyrrolo[3,4-d]imidazol-4(1H)-one]",28 nM,48 nM,31 nM,4300 nM,14.4 nM,38.8 nM,49.6 nM,>10000 nM,4.54 nM,9.58 nM
COc1cc(N2C(=O)c3nc(C4=CCOCC4)n(C(C)C)c3C2c2ccc(Cl)cc2)cc2c1nnn2C (stereo not drawn) [Example 60],31.5 nM,96 nM,53.5 nM,21900 nM,69 nM,132 nM,280 nM,>10000 nM,34 nM,63.1 nM
"Cc1cc(N2C(=O)c3ncn(C(C)C)c3C2c2ccc(Cl)cc2)cc2c1nnn2C (stereo not drawn) [Example 106, 6-(4-chlorophenyl)-5-(1,4-dimethyl-1H-benzo[d][1,2,3]triazol-6-yl)-1-isopropyl-5,6-dihydropyrrolo[3,4-d]imidazol-4(1H)-one]",40.5 nM,90 nM,41.5 nM,7200 nM,50.1 nM,86.8 nM,92.5 nM,>10000 nM,19.3 nM,34.7 nM
"COc1ncccc1-c1nc2c(n1C(C)C)C(c1ccc(Cl)cc1)N(c1cc(C)c3nnc(CF)n3c1)C2=O (stereo not drawn) [Example 89, 6-(4-chlorophenyl)-5-(3-(fluoromethyl)-8-methyl-[1,2,4]triazolo[4,3-a]pyridin-6-yl)-1-isopropyl-2-(2-methoxypyridin-3-yl)-5,6-dihydropyrrolo[3,4-d]imidazol-4(1H)-one]",15 nM,35 nM,13 nM,8350 nM,14.9 nM,40.45 nM,63.6 nM,>10000 nM,10.3 nM,20.8 nM
"Cc1cc(N2C(=O)c3nc(C4=CCOCC4)n(C(C)C)c3[C@H]2c2ccc(Cl)cc2)nn2c(C)nnc12 [Example 103, (R)-6-(4-chlorophenyl)-2-(3,6-dihydro-2H-pyran-4-yl)-5-(3,8-dimethyl-[1,2,4]triazolo[4,3-b]pyridazin-6-yl)-1-isopropyl-5,6-dihydropyrrolo[3,4-d]imidazol-4(1H)-one]",< 11 nM,< 11 nM,< 11 nM,> 37000 nM,3.47 nM,10.55 nM,12.4 nM,>10000 nM,2.09 nM,3.945 nM
"COc1ncccc1-c1nc2c(n1C(C)C)C(c1ccc(Cl)cc1)N(c1cc(C)c3nnc(C(F)F)n3n1)C2=O (stereo not drawn) [Example 148, 6-(4-chlorophenyl)-5-(3-(difluoromethyl)-8-methyl-[1,2,4]triazolo[4,3-b]pyridazin-6-yl)-1-isopropyl-2-(2-methoxypyridin-3-yl)-5,6-dihydropyrrolo[3,4-d]imidazol-4(1H)-one]",23 nM,36 nM,22 nM,> 37000 nM,9.99 nM,24.95 nM,69.5 nM,>10000 nM,6.47 nM,13.1 nM
"Cc1cc(N2C(=O)c3nc(N4CCOCC4)n(C)c3C2c2ccc(Cl)cc2)cn(C)c1=O (stereo not drawn) [Example 130, 6-(4-chlorophenyl)-5-(1,5-dimethyl-6-oxo-1,6-dihydropyridin-3-yl)-1-methyl-2-morpholino-5,6-dihydropyrrolo[3,4-d]imidazol-4(1H)-one]",180 nM,230 nM,160 nM,2400 nM,526 nM,1210 nM,1940 nM,>10000 nM,167 nM,390.5 nM
"Cc1cc(N2C(=O)c3nc(C)n(C(C)C)c3[C@H]2c2ccc(Cl)cc2)nn2c(C)nnc12 [Example 110, (R)-6-(4-chlorophenyl)-5-(3,8-dimethyl-[1,2,4]triazolo[4,3-b]pyridazin-6-yl)-1-isopropyl-2-methyl-5,6-dihydropyrrolo[3,4-d]imidazol-4(1H)-one]",< 11 nM,12 nM,< 11 nM,35900 nM,6.94 nM,21.6 nM,30.6 nM,>10000 nM,4.48 nM,11 nM
"COc1ccc(-c2nc3c(n2C(C)C)C(c2ccc(Cl)cc2)N(c2cc(C)c4nnn(C)c4n2)C3=O)cn1 (stereo not drawn) [Example 138, 6-(4-chlorophenyl)-5-(3,7-dimethyl-3H-[1,2,3]triazolo[4,5-b]pyridin-5-yl)-1-isopropyl-2-(6-methoxypyridin-3-yl)-5,6-dihydropyrrolo[3,4-d]imidazol-4(1H)-one]",11 nM,26 nM,11 nM,> 37000 nM,9.37 nM,23.6 nM,37.2 nM,>10000 nM,7.97 nM,13 nM
"COc1ncc(-c2nc3c(n2C(C)C)C(c2ccc(Cl)cc2)N(c2cc(C)c4onc(C)c4c2)C3=O)c(OC)n1 (stereo not drawn) [Example 34, 6-(4-chlorophenyl)-2-(2,4-dimethoxypyrimidin-5-yl)-5-(3,7-dimethylbenzo[d]-isoxazol-5-yl)-1-isopropyl-5,6-dihydropyrrolo[3,4-d]imidazol-4(1H)-one]",65.2 nM,98.2 nM,76.5 nM,1670 nM,64.9 nM,109 nM,219 nM,>10000 nM,36.6 nM,76.6 nM
